From patent US6780883B2, “Amide inhibitors of microsomal triglyceride transfer protein” (Warner-Lambert Company, priority 1998, dated 2004) come the findings set out here.

In general, pIC50 refers to the negative decadic logarithm of the IC50, by convention in mol/L.

pIC50: −log10 of the molar value. Bounds are passed on as bounds.

For assay [1], the system named is Lp(a) production in HepG2^K17 cells. Description: LPA3 screen: inhibition of Lp(a) production in transfected HepG2 cells, Lp(a) in media by ELISA. As to conditions: Homo sapiens, 8 hours, 0.3 to 50 μM compound, Lp(a) normalized for total protein, read-out: Lp A3 IC50. The assay is classed as cell-based. The method in brief: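 HepG2 cells stably expressing apo(a) 17-kringle construct, seeded overnight, then exposed to 0.3 to 50 μM compound for 8 h at 37 °C. Lp(a) secreted into media measured by ELISA and normalized to total cellular protein.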
On the technique in general: ELISA stands for enzyme-linked immunosorbent assay.

Assay [2] deals with apolipoprotein(a), [apo(a)], apolipoproteinB-100, [apoB-100], coupling reaction that generates Lp(a) (Homo sapiens, UniProt P04114+P08519). The experiment in a line: LPABC screen: lipoprotein(a) biochemical coupling assay, Lp(a) content by ELISA. As to conditions: recombinant apo(a) 17-kringle (293 cell media) + HepG2 conditioned media, 67 minutes, 37° C., 0.3 to 50 μM compound; read-out: Lp ABC IC50. The method in brief:
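Conditioned medium from 293 cells stably expressing 17-kringle apo(a), diluted 1:3 in PBS and prewarmed 10 min at 37 °C, mixed with compound (added as 0.3–50 μM PBS solution) then 1:3-diluted HepG2 conditioned medium as apoB-100 source. Incubated 67 min at 37 °C; Lp(a) formed quantified by ELISA.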

`COc1cccc(CN(C(=O)c2ccc(C(C)C)cc2)c2cccnc2)c1` [Example 69, 4-Isopropyl-N-(3-methoxy-benzyl)-N-pyridin-3-yl-benzamide]: the pIC50 is 4.73 in assay [1] and less than 4.30 in assay [2].
For the molecule `CCN(CC)CCCc1ccc(N(Cc2ccc3c(c2)C(C)(C)CCC3(C)C)C(=O)c2ccccc2)cc1` [Example 89, N-[4-(3-Diethylamino-propyl)-phenyl]-N-(5,5,8,8-tetramethyl-5,6,7,8-tetrahydro-naphthalen-2-ylmethyl)-benzamide], the values for the pIC50 in assay [1] and in assay [2] were 4.88 and less than 4.30, respectively.
The corresponding values for `O=C(c1cccc2c1OCO2)N(Cc1ccccc1-c1ccccc1)c1ccncc1` [Example 120, Benzo[1,3]dioxole-4-carboxylic acid biphenyl-2-ylmethyl-pyridin-4-yl-amide] are 4.74 and less than 4.30.
For `COc1cccc(N(Cc2ccccc2-c2ccccc2)C(=O)c2ccccc2SC(C)C)c1` [Example 130, N-Biphenyl-2-ylmethyl-2-isopropylsulfanyl-N-(3-methoxy-phenyl)-benzamide] the same measures were 4.50 and less than 4.30.
In the case of `COc1ccc(N(Cc2ccccc2-c2ccccc2)C(=O)c2ccccc2SCc2ccccc2)cc1OC` [Example 137, 2-Benzylsulfanyl-N-biphenyl-2-ylmethyl-N-(3,4-dimethoxy-phenyl)-benzamide], the pIC50 in assay [1] is 5.01; in assay [2], less than 4.30.
The corresponding values for `O=C(c1ccccc1Br)N(Cc1cccnc1)Cc1ccccc1-c1ccccc1` [Example 98, N-Biphenyl-2-ylmethyl-2-bromo-N-pyridin-3-ylmethyl-benzamide] are 5.07 and less than 4.30.
`COc1ccc(N(Cc2ccccc2-c2ccccc2)C(=O)c2ccccc2[S+]([O-])C(C)C)cc1OC` (centres unmarked) [Example 142, N-Biphenyl-2-ylmethyl-N-(3,4-dimethoxy-phenyl)-2-(propane-2-sulfinyl)-benzamide]: the values for the negative-log IC50 (pIC50) in assay [1] and in assay [2] were 5.15 and less than 4.30, respectively.
For `O=C(c1sc2ccccc2c1Cl)N(Cc1ccccc1-c1ccccc1)c1cccnc1` [Example 115, 3-Chloro-benzo[b]thiophene-2-carboxylic acid biphenyl-2-ylmethyl-pyridin-3-yl-amide] the same measures were 4.63 and less than 4.30.
As to `O=C(c1ccccc1OCc1ccccc1)N(Cc1ccccc1-c1ccccc1)c1ccccn1` [Example 113, 2-Benzyloxy-N-biphenyl-2-ylmethyl-N-pyridin-2-yl-benzamide], the pIC50 was 4.60 in assay [1] and less than 4.30 in assay [2].
Take `O=C(c1ccccc1[S+]([O-])c1ccccc1)N(Cc1ccccc1-c1ccccc1)c1ccc(Cl)cc1` (centres unmarked) [Example 140, 2-Benzenesulfinyl-N-biphenyl-2-ylmethyl-N-(4-chloro-phenyl)-benzamide]: the pIC50 in assay [1] was 4.60; in assay [2], less than 4.82.
For `COc1ccc(N(Cc2ccccc2-c2ccccc2)C(=O)c2ccccc2OCc2ccccc2)cc1` [Example 107, 2-Benzyloxy-N-biphenyl-2-ylmethyl-N-(4-methoxy-phenyl)-benzamide], the pIC50 in assay [1] was 4.81; in assay [2], less than 4.30.
For `CCOc1ccccc1C(=O)N(Cc1ccccc1-c1ccccc1)c1ccc(OC)cc1` [Example 104, N-Biphenyl-2-ylmethyl-2-ethoxy-N-(4-methoxy-phenyl)-benzamide] the same measures were 4.92 and less than 4.30.
On to `CCOc1ccc(C(=O)N(Cc2cccnc2)Cc2ccccc2-c2ccccc2)cc1` [Example 102, N-Biphenyl-2-ylmethyl-4-ethoxy-N-pyridin-3-ylmethyl-benzamide], for which the figures for the pIC50 in assay [1] and in assay [2] were 4.80 and less than 4.30, respectively.
